Test results: patent EP4772497A1, “POLYMORPHS OF NITROGEN-CONTAINING HETEROCYCLIC COMPOUNDS, AND USES THEREOF” (BNH Research Co., Ltd., priority 2023, dated 2025)

Key:
[1] = Parallel artificial membrane permeability assay (PAMPA) for BBB permeability; format: in vitro ADME
Experimental: • PAMPA: PMBBB-096 Kit • Assay format: 96-well plate • Reference substance: Imipramine (H) (10 µM) • Test substance concentration: 10 µM • Number of replicates: 3 • Reaction time: 6 hours at 25°C on a shaker (75 - 80 rpm) • Analytical method: LC-MS/MS • Data processing: Pe (cm/s)
The test compounds (crystalline forms A and C) were dissolved in DMSO at a concentration of 10 mM […] to prepare standard solutions. Next, dried brain lipids were resuspended in 600 µL dodecane to prepare a BBB lipid solution in dodecane. Pipetting up and down was repeated (~100 times) until all dried brain lipids were dissolved (vortexing or sonication may be helpful). A 10 µM reaction solution in PBS containing 5% DMSO was prepared.
The experiments were conducted in a 96-well plate using the prepared reaction solution of each test compound and the BBB lipid solution according to the following assay procedure. • 1. 500 µL of a 500 µM test compound solution (prepared by mixing 25 µL of a 10 mM test compound + 475 µL of PBS (pH 7.2) in DMSO) was prepared in a separate centrifuge tube. When a permeability control was used, it was diluted to 500 µM using PBS (prepared by mixing 25 µL of permeability control + 475 µL of PBS (pH 7.2)). • 2. For each test compound and control, a 200 µM equilibrium standard was prepared in a separate tube (by mixing 80 µL of 500 µM test compound or control with 120 µL of PBS (pH 7.2)). […] The absorbance spectrum from 200 nm to 500 nm was measured at 10 nm intervals to determine the peak absorbance of the test compounds. […] The peak absorbances of the high-permeability and low-permeability controls are 250 nm and 270 nm, respectively.
For the compounds and permeability controls, the permeability rate (Pe) was determined using the following equation: Pe = C × −ln(1−(ODA)/(ODE))cm/s [formula]
Here, ODA is the absorbance of the acceptor solution minus the blank, and ODE is the absorbance of the equilibrium standard minus the blank. For each absorbance value, the peak absorbance determined for each test was used. […]

[2] = test system: APP/PS1 mice; assay: fEPSP slope and LTP in hippocampal CA1 (Schaffer collateral) after dosing, ex vivo synaptic plasticity; settings: APP/PS1 mice 15 months old, form C 1 mg/kg orally once daily about 11 to 13 days, aducanumab 5 mg/kg i.v., four weekly injections
Experimental: Using APP/PS1 mice (15 months old, Taconic Biosciences), an animal model of Alzheimer's disease, the efficacy of crystalline form C and aducanumab (Creative Biolabs) was evaluated when administered alone or in combination, respectively. A control group and four experimental groups were prepared as follows (see Table 14).
For the control antibody, an isotype antibody was administered intravenously, and for the vehicle, 200 µL of a mixed solution of DMSO (10):PEG400 (44):saline (55) was administered orally. Five mice were used for each treatment group.
Aducanumab was administered at a dose of 5 mg/kg, and the control antibody, which is an inactivated form of aducanumab, was administered at a dose of 5 mg/kg. For the intravenous administration, a total of four injections were administered into the tail vein on the starting day of the experiment and at one-week intervals thereafter.
For oral administration, 1 mg/kg of the compound of the present disclosure (crystalline form C, BnH-015B) or a vehicle was administered orally once daily for about 11 to 13 days, starting about 2 weeks after the initiation of the experiment.

[3] = test system: Aβ plaques; assay: Bielschowsky silver staining of brain sections; format: in vivo, mice; settings: 1 mg/kg orally, cerebral cortex, vs vehicle control
Experimental: To evaluate the efficacy of crystalline form C of the present disclosure in inhibiting amyloid-beta protein accumulation, mouse proteomic profiling array analysis and Bielschowsky silver staining were performed. […]
Bielschowski silver staining (Bielschowski Silver Staining Kit, ab245877, abcam, Cambridge, UK) was performed according to the manufacturer's protocol. 40 µm-thick brain sections of APP/PS1 mice were incubated in a warm 20% silver nitrate solution at 40°C for 15 minutes, followed by four washes with distilled water and three rinses with water for 3 minutes each. The slides were incubated in an ammoniacal silver solution at 40°C for 10 minutes, and then placed in a developer solution (containing 8 drops of 20% formalin, 8 drops of citric acid, and 4 drops of nitric acid in 50 mL H2O) for a few seconds until the tissue sections turned yellow/brown. Subsequently, the slides were placed in aqueous ammonia for 30 seconds. The sections were washed three times with water for 2 minutes each and incubated in a 5% thiosulfate solution for 2 minutes. […]
Statistical analysis was performed using GraphPad Prism 9.5.0 software (San Diego, CA, USA). […] All data are expressed as mean ± SEM.

C[C@@H]1CC[C@H](C(=O)O)CN1C(=O)Cc1ccc(F)cc1Cl [Crystalline form C, (3S,6R)-1-(2-(2-chloro-4-fluorophenyl)acetyl)-6-methylpiperidine-3-carboxylic acid]
PAMPA Pe ([1]; BBB lipid membrane, PBS (pH 7.2)): 11.79 10^-9 cm/sec
BBB permeability, comparison of forms ([1]; PAMPA): superior BBB permeability compared to crystalline form A
long-term potentiation (LTP) of the fEPSP, excitatory SC pathway ([2]; hippocampus CA1): significantly increased
slope of the field excitatory postsynaptic potential (fEPSP), synaptic efficacy ([2]; hippocampus CA1, 4 weeks): significantly increased
Aβ plaques (percent area) [3]: reduced Aβ plaques
